The text below walks through data of PMC3894558, “Chemical signatures and new drug targets for gametocytocidal drug development” (Scientific Reports, 2014).

This experiment concerns P. falciparum 3D7 gametocytes. Nature of the experiment: alamarBlue gametocyte viability assay, strain 3D7. It is filed as cell-based, Plasmodium falciparum. The note with it: Malaria Box; for Max Resp: DMSO set at 0%, 100 nM epoxomicin set at -100%; for Curve Class / IC50: stages III-V 3D7 gametocytes; for IC50: 11 concentrations, 1:3 dilution. A general note: Alamar Blue is a resazurin reagent that responds to reducing activity.

The structures appear in SMILES notation. Like-named read-outs stand apart in the source and are kept apart here.

Experimental: Asexual parasites of P. falciparum strain 3D7 were cultured as described previously[55]. Briefly, gametocyte cultures were set up at 0.1% parasitemia and on days 9–10 treated with 50 mM N-acetylglucosamine (NAG) to block further asexual growth. Stage III–V gametocytes were isolated by Percoll density gradient centrifugation on day 12 and returned to culture for 24 hrs before being used in the assay[9]. […] Growth medium was made with Dulbecco's Modified Eagle Medium with 10% fetal bovine serum (FBS).
Compound screening experiments were performed as previously described[11]. Briefly, 2.5 μl/well incomplete medium was dispensed into each well of 1,536-well plates using the Multidrop Combi followed by 23 nl compound transferring using the NX-TR Pintool (WAKO Scientific Solutions, San Diego, CA). Then, 2.5 μl/well of gametocytes was dispensed with a seeding density of 20,000 cells/well using the Multidrop Combi. The assay plates were incubated for 72 hrs at 37°C with 5% CO2.
The primary screen data was analyzed using customized software developed internally[58]. IC50 values were calculated using the Prism software (Graphpad Software, Inc. San Diego, CA). Data were presented as means ± SEM with n = 3 independent experiments.

The term IC50 denotes the point on the concentration scale where inhibition reaches its midpoint. In the case of `O=C(CCc1ccco1)NC1CCN(CC2(c3ccc(Cl)cc3)CCC2)CC1` [MMV666108], the “Max Resp” value is -51%, the “Curve Class” value was -2.2 and the IC50 result was “Inactive”.

Consider `CN(C)c1ccc(-c2nc3ccc(N)cc3[nH]2)cc1` [MMV666102], for which the “Max Resp” value is on record as -75% and the “Curve Class” value was -2.2. Where the note is “read-out: IC50”, the IC50 is 29.6 µM.

On to `CC(C)(C)c1ccc(O)c(CNC2CCCCC2)c1` [MMV665785], for which the “Max Resp” value is listed as -50% and the “Curve Class” value is listed as -1.2. Further, the IC50 (read-out: IC50) worked out at 0.148 µM.

Take `COc1ccc2nc(C)cc(Nc3ccccc3O)c2c1` [MMV274073]: the “Max Resp” value was -66% and the “Curve Class” value was -2.2. Besides, the IC50 (read-out: IC50) was 23.5 µM.

`COc1ccc(C2N(C)c3ccccc3N2C)cc1` [MMV666075]: the “Max Resp” value is listed as -34%, the “Curve Class” value is on record as -2.4 and the IC50 entry was “Inactive”.

Turning to `CC(C)(C)C(=O)Nc1ccc(C(=O)Nc2cccc(-c3nc4ccccc4[nH]3)c2)cc1` [MMV665879], the “Max Resp” value is recorded as -23%, the “Curve Class” value worked out at 4 and the IC50 entry is “Inactive”.

Regarding `COc1ccc(C(=O)C(CCC(CNC(C)(C)C)C(=O)c2ccc(OC)cc2)CNC(C)(C)C)cc1` (stereo not drawn) [MMV007591], the “Max Resp” value is -109% and the “Curve Class” value is -1.1. Moreover, under “read-out: IC50”, the IC50 was 2.64 µM.

On to `O=C1CC(O)(C(F)(F)C(F)(F)F)Oc2ccccc21` (stereo not drawn) [MMV000972], for which the “Max Resp” value is on record as -32% and the “Curve Class” value is -1.4. Also, for the setting “read-out: IC50”, the IC50 was 0.743 µM.

Turning to `COc1ccc(CN2CCN(Cc3ccccc3)CC2)c(O)c1` [MMV665944], the “Max Resp” value is on record as -96% and the “Curve Class” value is given as -2.1. Moreover, the IC50 (read-out: IC50) amounted to 6.62 µM.

As to `COc1ccc(-c2cc3c(nn2)-c2ccccc2C3=O)cc1` [MMV666026], the “Max Resp” value is 0%, the “Curve Class” value stood at 4 and the IC50 entry was “Inactive”.

Consider `COc1cc(-c2nc(-c3ccccc3)c(-c3ccccc3)[nH]2)cc(OC)c1O` [MMV020750], for which the “Max Resp” value was -55% and the “Curve Class” value is -2.2. Moreover, where the note is “read-out: IC50”, the IC50 is 37.2 µM.

Consider `c1ccc(CNc2nc(Nc3ccccc3)nc3ccccc23)cc1` [MMV006169], for which the “Max Resp” value is given as -80% and the “Curve Class” value is -2.2. Moreover, under “read-out: IC50”, the IC50 stood at 11.8 µM.

Consider `COc1cccc(NC(=O)Cn2c(C)c(C#N)c3ccccc32)c1` [MMV665826], for which the “Max Resp” value is on record as -52%, the “Curve Class” value was -2.2 and the IC50 result is given as “Inactive”.

With `CN1c2ccccc2N(C)C1c1ccc2c(c1)OCO2` [MMV666009], the “Max Resp” value is -36%, the “Curve Class” value is -2.4 and the IC50 entry was “Inactive”.

With `CCOC(=O)c1c[nH]c2c(CC)cccc2c1=O` [MMV498479], the “Max Resp” value is listed as 28%, the “Curve Class” value was determined as 4 and the IC50 entry is on record as “Inactive”.

`CNCCCNc1ccnc2cc(Cl)ccc12` [MMV020500]: the “Max Resp” value is given as -63% and the “Curve Class” value is listed as -1.2. The IC50 (read-out: IC50) is 0.235 µM.

`CN(C)CCCNCc1ccc(-c2ccc(F)c(Cl)c2)o1.Cl` [MMV020505]: the “Max Resp” value is -98% and the “Curve Class” value is listed as -1.1. Moreover, the IC50 (read-out: IC50) was found to be 3.32 µM.

Take `CCN1CCN(Cc2ccc(NC(=O)c3cc4ccc5cccnc5c4[nH]3)cc2)CC1` [MMV020548]: the “Max Resp” value was -56%, the “Curve Class” value is recorded as -3 and the IC50 result is recorded as “Inactive”.

As for `COc1ccc(C(=O)Nc2nonc2-c2ccc(OC)c(OC)c2)cc1Cl` [MMV011567], the “Max Resp” value is reported as 1%, the “Curve Class” value is 4 and the IC50 entry is recorded as “Inactive”.

With `O=C(NCc1ccco1)C1CCN(S(=O)(=O)c2ccc(Br)cc2)CC1` [MMV007430], the “Max Resp” value amounted to 29%, the “Curve Class” value was 4 and the IC50 result is “Inactive”.

As to `COc1ccc(C(=O)NC(c2ccccc2Cl)c2cc(Cl)c3cccnc3c2O)cc1` (stereo not drawn) [MMV666022], the “Max Resp” value was -83% and the “Curve Class” value was -2.1. The IC50 (read-out: IC50) turned out to be 14.8 µM.

Consider `O=C(Nc1nc(-c2ccccn2)cs1)c1ccccc1Br` [MMV665909], for which the “Max Resp” value is recorded as -65% and the “Curve Class” value was -2.2. For the same compound, the IC50 (read-out: IC50) came to 18.7 µM.

Turning to `Cc1sc(NC(=O)c2ccccc2)c(C(c2cccs2)N2CCN(c3ccccc3)CC2)c1C` (stereo not drawn) [MMV396652], the “Max Resp” value was -1%, the “Curve Class” value is 4 and the IC50 entry is listed as “Inactive”.

Regarding `COc1ccc(Nc2nc(N/N=C/c3ccc(O)cc3)nc(Nc3ccc([N+](=O)[O-])cc3)n2)cc1` [MMV666689], the “Max Resp” value was -64% and the “Curve Class” value is recorded as -1.2. For the same compound, the IC50 (read-out: IC50) was found to be 6.62 µM.

As to `Cc1ccc(N2C(=O)C3C(C2=O)C2(c4ccccc4)C(=O)C3(c3ccccc3)C(c3ccccc3)=C2c2ccccc2)cc1` (stereo not drawn) [MMV666062], the “Max Resp” value was determined as 12%, the “Curve Class” value came out at 4 and the IC50 result is “Inactive”.

Consider `O=C(Nc1ccc(Br)cc1)Nc1cccc(Cl)c1` [MMV001318], for which the “Max Resp” value is reported as -20%, the “Curve Class” value is 4 and the concentration for half-maximal inhibition (IC50) result is on record as “Inactive”.

As to `Cc1ccc(C)c(Cn2c(N3CCC(C(=O)NCc4cccs4)CC3)nc3ccccc32)c1` [MMV019741], the “Max Resp” value was -65% and the “Curve Class” value is recorded as -2.2. Also, where the note is “read-out: IC50”, the IC50 was 37.2 µM.

Turning to `CCOC(=O)c1ccc2[nH]c(-c3ccccc3)cc(=O)c2c1` [MMV006457], the “Max Resp” value is listed as 14%, the “Curve Class” value is given as 4 and the 50% inhibitory concentration (IC50) result is “Inactive”.

On to `COCCn1c(C)nc2ccccc2c1=O` [MMV665904], for which the “Max Resp” value is on record as -7%, the “Curve Class” value amounted to 4 and the half-maximal inhibitory concentration (IC50) entry was “Inactive”.

Consider `Nc1ccc(-c2nc3cc(Cc4ccc5[nH]c(-c6ccc(N)cc6)nc5c4)ccc3[nH]2)cc1` [MMV665943], for which the “Max Resp” value is recorded as -69% and the “Curve Class” value is -2.2. For the same compound, under “read-out: IC50”, the IC50 came to 29.6 µM.

As to `CCOc1ccc2c(c1)CN(Cc1ccc(Cl)cc1)CO2` [MMV000443], the “Max Resp” value is -54% and the “Curve Class” value is listed as -1.2. The IC50 (read-out: IC50) was 1.32 µM.

For the compound `COc1ccc(CCN2C(=O)c3[nH]nc(-c4cc(Cl)c(C)cc4O)c3C2c2ccccc2F)cc1` (stereo not drawn) [MMV396717], the “Max Resp” value is listed as -70% and the “Curve Class” value is -2.2. Also, where the note is “read-out: IC50”, the IC50 was found to be 23.5 µM.

In the case of `CCCCN(CCCC)S(=O)(=O)c1ccc(NC(=O)c2ccco2)cc1` [MMV007881], the “Max Resp” value was found to be 15%, the “Curve Class” value came to 4 and the IC50 entry was “Inactive”.

On to `CCCCOc1ccc(C(=O)Nc2cc(C)on2)cc1` [MMV007906], for which the “Max Resp” value was 12%, the “Curve Class” value came out at 4 and the IC50 result is recorded as “Inactive”.

For the compound `CCOC(=O)c1c[nH]c2ccc(CC)cc2c1=O` [MMV007116], the “Max Resp” value turned out to be 32%, the “Curve Class” value was determined as 4 and the IC50 result is given as “Inactive”.

For the compound `Nc1nc(Nc2cccc(F)c2)nc2ccccc12` [MMV080034], the “Max Resp” value is on record as -61% and the “Curve Class” value is on record as -2.2. The IC50 (read-out: IC50) amounted to 29.6 µM.

Regarding `CCN(CC)CCNc1ncnc2c1[nH]c1ccc(Cl)cc12` [MMV396703], the “Max Resp” value is -81% and the “Curve Class” value was -1.1. Besides, the IC50 (read-out: IC50) stood at 3.72 µM.

Consider `O=C(Nc1cccc(C(F)(F)F)c1)c1cc(Cl)ccc1O` [MMV665807], for which the “Max Resp” value was -84% and the “Curve Class” value was -2.1. Further, where the note is “read-out: IC50”, the IC50 came to 20.9 µM.

`O=C(O)C(=O)O.Oc1ccccc1CN1CCN(C(c2ccccc2)c2ccccc2)CC1` [MMV011795]: the “Max Resp” value is recorded as -53% and the “Curve Class” value is -2.2. For the setting “read-out: IC50”, the IC50 was 5.9 µM.

For `CCN(Cc1ccccc1)C1CCN(Cc2cc(Br)ccc2O)CC1.O=C(O)C(=O)O` [MMV019127], the “Max Resp” value is -56% and the “Curve Class” value is -1.2. Also, the half-maximal inhibitory concentration (IC50) (read-out: IC50) came out at 0.935 µM.

As for `O=C(Nc1ccccc1O)c1ccc(Oc2cccc(C(=O)Nc3ccccc3O)c2)cc1` [MMV665888], the “Max Resp” value is given as -76% and the “Curve Class” value is reported as -2.2. The IC50 (read-out: IC50) was 14.8 µM.

Regarding `Cc1ccc(CN2CCC(C(=O)Nc3ccc(-c4cc5ccccc5[nH]4)cc3)CC2)o1` [MMV666071], the “Max Resp” value is listed as -71% and the “Curve Class” value was -2.2. Besides, the IC50 (read-out: IC50) was determined as 29.6 µM.

For the compound `O=C(Nc1ccc(Cl)c(Cl)c1)Nc1ccc(Cl)c(Cl)c1` [MMV665852], the “Max Resp” value is recorded as -88% and the “Curve Class” value is reported as -2.1. Also, the IC50 (read-out: IC50) amounted to 23.5 µM.

Turning to `CCOC(=O)C1(Cc2ccccc2)CCN(Cc2cccc(OC)c2O)CC1` [MMV666109], the “Max Resp” value is -58% and the “Curve Class” value is recorded as -1.2. Also, the IC50 (read-out: IC50) was determined as 5.26 µM.

As to `Oc1ccc(Br)cc1CN1CCN(Cc2ccc(Cl)cc2)CC1` [MMV665809], the “Max Resp” value is -58% and the “Curve Class” value is on record as -1.2. Also, the IC50 (read-out: IC50) was found to be 3.72 µM.

Regarding `CCN1CCN(c2c(C(=O)c3ccccc3)cnc3cc(OC)c(OC)cc23)CC1` [MMV008474], the “Max Resp” value is -32%, the “Curve Class” value is -2.4 and the IC50 result is “Inactive”.

With `COc1ccc(C(=O)Nc2ccc(Cl)cc2C(=O)Nc2ccncc2)cc1` [MMV665799], the “Max Resp” value is given as -28%, the “Curve Class” value came to 4 and the IC50 result was “Inactive”.

As to `O=C(Nc1ccc(CN2CCOCC2)cc1)c1ccc(-c2cc(Cl)ccc2Cl)o1` [MMV020651], the “Max Resp” value is -23%, the “Curve Class” value turned out to be 4 and the IC50 result is recorded as “Inactive”.
